What was measured:
[1] = Pharmacokinetics in mice; assay type: in vivo; conditions: mouse, plasma, male CD-1 mice; for AUC / clearance / half-life / Vd: 1 mg/kg, iv; for Vd: read-out: Vdss
Description: A dosing solution of test sample was prepared at 1.0 mg/mL in 5% DMSO/40% PEG400/55% water and administered to male CD-1 mice (4-6 weeks old, 20-30 grams, 3 animals each group) via intravenous (IV) bolus at 1 mg/kg and by oral gavage (PO) at 5 mg/kg. Blood samples (˜0.03 mL each time point) were collected via the jugular vein into tubes containing sodium heparin as the anticoagulant at 0.033, 0.083, 0.25, 0.5, 1, 2, 4, 8 and 24 hours post dose for IV administration and 0.083, 0.25, 0.5, 1, 2, 4, 8 and 24 hours post dose for PO administration. The blood samples were then centrifuged for 5 minutes in a centrifuge refrigerated at 4° C. The resultant plasma samples were analyzed using LC/MS/MS to determine concentrations of test sample. Non-compartmental model with WinNonlin (Phoenix™, version 8.0) software was used to calculate pharmacokinetic (PK) parameters.

[2] = tested on: cGAMP activated THP-1 cells; assay: ENPP1 inhibitors screening on cGAMP activated THP-1 cells (IFN-β ELISA); assay type: cell-based; conditions: THP-1 cells with 2′3′-cGAMP, 24 hours, FIGS. 1A-1E
Description: THP-1 cells from bulk cultures were counted and suspended in RPMI 1640, 20% FBS, 2.5 mM L-alanyl-L-glutamine at a concentration of 5.5×10^6 cells/mL. The THP-1 cells were subsequently seeded into 96 well round bottom plates 180 μL/well (1×10^6 cells per well), incubated for 1 hour at 37° C., 5% CO2.
Test compounds were screened in triplicate on THP-1 cells at a final concentration of 10 μM. A working solutions at 0.2 mM. Each well contains 180 μL of THP-1 cell suspension, 10 μL (30 μM, 40 μM or 50 μM) 2′3′-cGAMP (InvivoGen, catalog #tlrl-nacga23) solution (600 μM, 800 μM or 1000 μM) and 10 μL test compound working solution. Incubate for 1 hour.
Vehicle control wells contain 2′3′-cGAMP at concentrations of […] and 50 μM without any test compound. Positive control, 2′3′-cGAMP or 2′,3′-cGAM(PS)2 (Rp/Sp) (InvivoGen, cat #tlrl-nacga2srs) at 40 μM and 80 μM (final concentration).
The final assay volume were 200 μL/well contains: 1) THP-1 cells=180 μL, 2) test compounds=10 μL, 3) 2′3′-cGAMP or 2′3′-cGAM(PS)2 (Rp/Sp) or vehicle control=10 μL.
After incubation for 24 hours at 37° C., 5% CO2, the supernatants were harvested at 200×g for 10 minutes. Cell culture supernatants were then transferred to a clean plate and stored at −80° C. until ready to analyze for IFN-β levels. The IFN-β levels in cell culture supernatants were determined by ELISA kits (PBL Assay Science, catalog #41410) according to the manufacturer's instructions.
The % increase measured for IFN-β in cells treated by the test compounds 12, 48, 89, 103 and 121 relative to that of untreated cells were tested (as shown in FIGS. 1A-1E).

[3] = target: T1, ENPP-1, Saos-2 cells (Homo sapiens, UniProt P22413); assay: Cellular enzymatic assay of ENPP-1 inhibitors using TMP-pNP as substrate, Saos-2 cells; assay type: cell-based
T1 construct: ENPP-1 were mainly expressed on the surface of cell membrane; endogenous in cells; host or cells: Saos-2
T1 sequence (P22413 1-925): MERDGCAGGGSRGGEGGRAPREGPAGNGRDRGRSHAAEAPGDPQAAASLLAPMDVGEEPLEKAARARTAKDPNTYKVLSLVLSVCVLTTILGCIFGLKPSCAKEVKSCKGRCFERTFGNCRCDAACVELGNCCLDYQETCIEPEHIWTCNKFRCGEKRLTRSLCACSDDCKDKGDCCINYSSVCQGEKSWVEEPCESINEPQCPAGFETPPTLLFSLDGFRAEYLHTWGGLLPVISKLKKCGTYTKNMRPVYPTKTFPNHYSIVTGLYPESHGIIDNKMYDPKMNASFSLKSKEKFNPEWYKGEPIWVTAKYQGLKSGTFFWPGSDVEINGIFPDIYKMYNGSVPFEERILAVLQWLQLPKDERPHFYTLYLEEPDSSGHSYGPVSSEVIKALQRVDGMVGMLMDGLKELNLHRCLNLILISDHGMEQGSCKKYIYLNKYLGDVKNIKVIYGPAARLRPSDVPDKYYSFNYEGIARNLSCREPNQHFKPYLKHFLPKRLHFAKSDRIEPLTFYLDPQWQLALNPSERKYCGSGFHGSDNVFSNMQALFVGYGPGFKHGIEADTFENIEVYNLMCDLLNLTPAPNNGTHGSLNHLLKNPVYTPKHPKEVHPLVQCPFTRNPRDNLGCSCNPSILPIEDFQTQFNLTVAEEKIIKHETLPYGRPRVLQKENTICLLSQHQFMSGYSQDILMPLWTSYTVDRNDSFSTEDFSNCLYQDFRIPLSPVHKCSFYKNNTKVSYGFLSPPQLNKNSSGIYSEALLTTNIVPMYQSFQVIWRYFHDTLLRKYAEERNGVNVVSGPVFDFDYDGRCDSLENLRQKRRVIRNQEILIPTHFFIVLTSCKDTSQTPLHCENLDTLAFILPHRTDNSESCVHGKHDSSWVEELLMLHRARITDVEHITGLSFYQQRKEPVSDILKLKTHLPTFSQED
Description: (§1) ENPP-1 were mainly expressed on the surface of cell membrane where it hydrolytes 2′3′-cGAMP to generate 5′-GMP and 5′-AMP. ENPP-1 also has the ability to hydrolyzes artificial phosphoric acid ester TMP-pNP to nucleotide-5′-monophosphate and p-nitrophcnol there, which is a chromogenic product.
(§2) 8 point of different concentrations of each inhibitor were prepared with the final assay concentrations starting at 20 μM. 3× series dilution by DMEM medium without FBS was applied. Prior to adding inhibitors, 75000 cells per well were incubated at 37° C., 5% CO2 in DMEM for 24 hours. After removing the supernatant medium, 50 μL inhibitor solution was added into each well with cultured cells and incubate at 37° C., 5% CO2 for 60 minutes.
(§3) The IC50 values for percent inhibition versus compound concentration are determined by fitting the inhibition curves using a four-parameter variable slope model in GraphPad Prism® 8.

[4] = target: T2, ENPP-1, HEK293 cells (Homo sapiens, UniProt P22413); assay: Cellular enzymatic assay of ENPP-1 inhibitors using TMP-pNP as substrate, HEK 293 cells; assay type: cell-based; conditions: for inhibition at 20 µM: HEK293, HEK 293 cells, read-out: Inhibition (at 20 μM)
T2 construct: ENPP-1 were mainly expressed on the surface of cell membrane; endogenous in cells; host or cells: HEK293
T2 sequence (P22413 1-925): T1 sequence (P22413 1-925)
Description: as §1, §2, §3

Row | SMILES | AUC [1] | clearance [1] | half-life [1] | Vd [1] | bioavailability ([1]; oral gavage (PO) at 5 mg/kg vs IV 1 mg/kg) | % increase measured for IFN-β relative to that of untreated cells [2] | IC50 [3] | inhibition at 20 µM ([3]; Saos-2 cells, @20 μM, read-out: % Inhibition (@20 μM)) | IC50 [4] | inhibition at 20 µM [4]
1 | COc1cc2ncc3ncn(Cc4ccc(S(N)(=O)=O)cn4)c3c2cc1OC [Compound 12, 6-((7,8-dimethoxy-1H-imidazo[4,5-c]quinolin-1-yl)methyl)pyridine-3-sulfonamide] | 93 ng·h/mL | 180 mL/min/kg | 15 min | 2.9 L/kg | 0% | potently increased the IFN-β levels at very low concentrations | 1000 nM | 87% | 2300 nM | 85%
2 | COc1ccc2c(ncc3nc(C)n(Cc4ccc(S(N)(=O)=O)cc4)c32)n1 [Compound 48, 4-((7-methoxy-2-methyl-1H-imidazo[4,5-c][1,8]naphthyridin-1-yl)methyl)benzenesulfonamide] | 239 ng·h/mL | 70 mL/min/kg | 19.8 min | 1.7 L/kg |  | potently increased the IFN-β levels at very low concentrations |  |  | 670 nM | 95%
3 | COc1ccc2c(n1)nc(C)c1nc(C)n(Cc3ccc(S(N)(=O)=O)cn3)c12 [Compound 89, 6-((7-methoxy-2,4-dimethyl-1H-imidazo[4,5-c][1,8]naphthyridin-1-yl)methyl)pyridine-3-sulfonamide] | 656 ng·h/mL | 26 mL/min/kg | 32.4 min | 0.8 L/kg |  | potently increased the IFN-β levels at very low concentrations |  |  |  | 
